Reference: ChEMBL document CHEMBL3351410, “The discovery of avanafil for the treatment of erectile dysfunction: a novel pyrimidine-5-carboxamide derivative as a potent and highly selective phosphodiesterase 5 inhibitor” (Bioorg Med Chem Lett, 2014)

Key:
[1] = biological target: cGMP-specific 3',5'-cyclic phosphodiesterase (Canis lupus familiaris, UniProt O77746); experiment: Inhibition of dog lungs PDE5 using [3H]cGMP as substrate after 30 mins by scintillation counting analysis
[2] = Selectivity for dog lungs PDE5 over light-activated bovine retina PDE6
[3] = test system: Corpus cavernosum; experiment: Induction of relaxant effect in rabbit corpus cavernosum after 30 mins; type: functional, Oryctolagus cuniculus
[4] = organism: Homo sapiens; experiment: Selectivity for PDE5 (unknown origin) over PDE6 (unknown origin)
[5] = organism: Homo sapiens; experiment: Selectivity for PDE5 (unknown origin) over PDE11 (unknown origin)
[6] = organism: Homo sapiens; experiment: Selectivity for PDE5 (unknown origin) over PDE1 (unknown origin)
[7] = organism: Homo sapiens; experiment: Selectivity for PDE5 (unknown origin) over PDE8 (unknown origin)
[8] = organism: Homo sapiens; experiment: Selectivity for PDE5 (unknown origin) over PDE9 (unknown origin)
[9] = organism: Homo sapiens; experiment: Selectivity for PDE5 (unknown origin) over PDE4 (unknown origin)
[10] = organism: Homo sapiens; experiment: Selectivity for PDE5 (unknown origin) over PDE2 (unknown origin)
[11] = organism: Homo sapiens; experiment: Selectivity for PDE5 (unknown origin) over PDE3 (unknown origin)
[12] = organism: Homo sapiens; experiment: Selectivity for PDE5 (unknown origin) over PDE10 (unknown origin)
[13] = organism: Homo sapiens; experiment: Selectivity for PDE5 (unknown origin) over PDE7 (unknown origin)

For `COc1ccc(CNc2nc(N3CCC(CO)C3)ncc2C(=O)NCc2ncccn2)cc1Cl` (configuration not stated), the IC50 [1] was 25 nM.

For `COc1ccc(CNc2nc(OCc3ccccn3)ncc2C(=O)NCc2ncccn2)cc1Cl`, the IC50 [1] was 12 nM and the Selectivity ratio [2] was 720.

`COc1ccc(CNc2nc(N3CCC[C@H]3CO)ncc2C(=O)N[C@H]2CC[C@H](OC)CC2)cc1Cl` gave an IC50 [1] of 0.9 nM, a Selectivity ratio [2] of 7700 and an EC30 [3] of 6.8 nM.

Compound `COc1ccc(CNc2nc(OCc3ccccn3)ncc2C(=O)OCc2ccccn2)cc1Cl` has an IC50 [1] of 2.1 nM and a Selectivity ratio [2] of 1000.

In the case of `COc1ccc(CNc2nc(OCc3ccccn3)ncc2C(=O)N[C@H]2CC[C@H](O)CC2)cc1Cl`, the IC50 [1] is reported as 3.5 nM and the Selectivity ratio [2] is reported as 510.

`COc1ccc(CNc2nc(OCc3ccccn3)ncc2C(=O)NCc2ccccn2)cc1Cl` gave an IC50 [1] of 2.7 nM and a Selectivity ratio [2] of 480.

Work on `COc1ccc(CNc2nc(N(C)CCO)ncc2C(=O)NCc2ccccn2)cc1Cl` yielded an IC50 [1] of 32 nM.

For `COc1ccc(CNc2nc(N3CCC(O)CC3)ncc2C(=O)NCc2ccccn2)cc1Cl`, the IC50 [1] was 59 nM.

`COCCCNC(=O)c1cnc(OCc2ccccn2)nc1NCc1ccc(OC)c(Cl)c1` gave an IC50 [1] of 15 nM and a Selectivity ratio [2] of 240.

Work on `CCOC(=O)c1cnc(OCc2ccccn2)nc1NCc1ccc(OC)c(Cl)c1` yielded an IC50 [1] of 5.5 nM and an EC30 [3] of 37 nM.

`COc1ccc(CNc2nc(OCc3ccccn3)ncc2C(=O)NCCCCO)cc1Cl` showed an IC50 [1] of 12 nM and a Selectivity ratio [2] of 480.

`COc1ccc(CN=c2[nH]c(N3CCC[C@H]3CO)ncc2C(=O)NCc2ncccn2)cc1Cl` [AVANAFIL] gave an IC50 [1] of 5.2 nM.

With `COc1ccc(CNc2nc(N3Cc4ccccc4C[C@H]3CO)ncc2C(=O)NCc2ccccn2)cc1Cl` the IC50 [1] was 6.5 nM.

In the case of `COc1ccc(CNc2nc(OCc3ccccn3)ncc2C(=O)OCc2ncccn2)cc1Cl`, the IC50 [1] is reported as 4.2 nM and the Selectivity ratio [2] is reported as 640.

`COc1ccc(CNc2nc(N3CCC[C@H]3CO)ncc2C(=O)NCc2ccccn2)cc1Cl` showed an IC50 [1] of 1.2 nM, a Selectivity ratio [2] of 4300 and an EC30 [3] of 22 nM.

`COc1ccc(CNc2nc(N3CCC[C@H]3CO)ncc2C(=O)NCCCO)cc1Cl` gave an IC50 [1] of 6.6 nM, a Selectivity ratio [2] of 1500 and an EC30 [3] of 4.9 nM.

`CCCc1nc(C)c2c(=O)nc(-c3cc(S(=O)(=O)N4CCN(CC)CC4)ccc3OCC)[nH]n12` gave a Selectivity ratio [4] of 21.

Compound `CN1CC(=O)N2[C@H](c3ccc4c(c3)OCO4)c3[nH]c4ccccc4c3C[C@@H]2C1=O` has a Selectivity ratio [4] of 550 and a Selectivity ratio [5] of 25.

`COc1ccc(CNc2nc(N3CCC[C@@H]3CO)ncc2C(=O)NCc2ncccn2)cc1Cl` gave an IC50 [1] of 36 nM.

In the case of `COc1ccc(CNc2nc(N3CCC[C@H]3CO)ncc2C(=O)N[C@H]2CC[C@H](O)CC2)cc1Cl`, the IC50 [1] is reported as 1.8 nM, the Selectivity ratio [2] is reported as 5600 and the EC30 [3] is reported as >100 nM.

With `COc1ccc(CNc2nc(N3CCOC(CO)C3)ncc2C(=O)NCc2ccccn2)cc1Cl` (configuration not stated) the IC50 [1] was 32 nM.

In the case of `COc1ccc(CNc2nc(N3CCCC(CO)C3)ncc2C(=O)NCc2ncccn2)cc1Cl` (configuration not stated), the IC50 [1] is reported as 63 nM.

In the case of `COc1ccc(CNc2nc(N3CCOC[C@H]3CO)ncc2C(=O)NCc2ncccn2)cc1Cl`, the IC50 [1] is reported as > 100 nM.

Work on `COc1ccc(CNc2nc(N3CCCCC3CO)ncc2C(=O)NCc2ccccn2)cc1Cl` (configuration not stated) yielded an IC50 [1] of 54 nM.

`COc1ccc(CNc2nc(OCc3ccccn3)ncc2C(=O)NCCN2CCOCC2)cc1Cl` gave an IC50 [1] of 5.6 nM and a Selectivity ratio [2] of 630.

In the case of `COc1ccc(CNc2nc(N3CCC[C@H]3CO)ncc2C(=O)NCC2CN(C)CCO2)cc1Cl` (some centres not stated), the IC50 [1] is reported as 6.1 nM, the Selectivity ratio [2] is reported as 2000 and the EC30 [3] is reported as 2.7 nM.

In the case of `COc1ccc(CNc2nc(OCc3ccccn3)ncc2C(=O)NCCCO)cc1Cl`, the IC50 [1] is reported as 13 nM and the Selectivity ratio [2] is reported as 420.

In the case of `CCCc1nn(C)c2c(=O)[nH]c(-c3cc(S(=O)(=O)N4CCN(C)CC4)ccc3OCC)nc12`, the Selectivity ratio [4] is reported as 16.

With `COc1ccc(CNc2nc(OCc3ccccn3)ncc2C(=O)N(C)Cc2ccccn2)cc1Cl` the IC50 [1] was 85 nM.

In the case of `COc1ccc(CNc2nc(N3CCC[C@H]3CO)ncc2C(=O)NCc2ncccn2)cc1Cl` [AVANAFIL], the Selectivity ratio [4] is reported as 121, the Selectivity ratio [6] is reported as > 1000 and the Selectivity ratio [2] is reported as 4000. The Selectivity ratio [7] was > 1000, the Selectivity ratio [8] was > 1000 and the Selectivity ratio [5] was > 19200. The Selectivity ratio [9] was > 1000, the Selectivity ratio [10] was > 1000 and the Selectivity ratio [11] was > 1000. The Selectivity ratio [12] was > 1000, the EC30 [3] was 2.1 nM and the Selectivity ratio [13] was > 1000.
